Assay results reported in patent US5872281A, “Amino acid derivative having N,N-dialkylaminophenyl group” (Santen Pharmaceutical Co., Ltd., priority 1995, dated 1999).

system: arthritis in a collagen-induced arthritis model; assay: not given; details: J. Med. Chem., 37, 3197-3199 (1994); cited from earlier work

Row | SMILES | inhibition of sideration of arthritis (in words)
1 | O=C(O)C1(c2ccc3c(c2)OC[C@H](Cc2ccc(-c4ccccc4)cc2)[C@H]3O)CCCC1 [(+)-1-(3S, 4R)-[3-(4-phenylbenzyl)-4-hydroxychroman-7-yl]cyclopentanecarboxylic acid] | inhibit sideration of arthritis

biological target: T1, LTA4 hydrolase (Cavia porcellus, UniProt P19602); assay: LTA4 hydrolase inhibition, LTB4 produced from LTA4 (guinea pig lung enzyme preparation), measured by HPLC; format: biochemical; details: LTA4 63 μM; HEPES 50 mM, pH 7.8; enzyme preparation 0.4-0.6 mg protein; DTT 3 mM; 37° C., one minute; read-out: IC50 (concentration required to inhibit LTA4 hydrolase by 50%)
T1 construct: prepared by extracting roughly from guinea pig lung; from tissue; host or cells: guinea pig (Hartley) lung, 100,000×g supernatant, 40-70% ammonium sulfate fraction, dialyzed
T1 sequence (P19602 1-611): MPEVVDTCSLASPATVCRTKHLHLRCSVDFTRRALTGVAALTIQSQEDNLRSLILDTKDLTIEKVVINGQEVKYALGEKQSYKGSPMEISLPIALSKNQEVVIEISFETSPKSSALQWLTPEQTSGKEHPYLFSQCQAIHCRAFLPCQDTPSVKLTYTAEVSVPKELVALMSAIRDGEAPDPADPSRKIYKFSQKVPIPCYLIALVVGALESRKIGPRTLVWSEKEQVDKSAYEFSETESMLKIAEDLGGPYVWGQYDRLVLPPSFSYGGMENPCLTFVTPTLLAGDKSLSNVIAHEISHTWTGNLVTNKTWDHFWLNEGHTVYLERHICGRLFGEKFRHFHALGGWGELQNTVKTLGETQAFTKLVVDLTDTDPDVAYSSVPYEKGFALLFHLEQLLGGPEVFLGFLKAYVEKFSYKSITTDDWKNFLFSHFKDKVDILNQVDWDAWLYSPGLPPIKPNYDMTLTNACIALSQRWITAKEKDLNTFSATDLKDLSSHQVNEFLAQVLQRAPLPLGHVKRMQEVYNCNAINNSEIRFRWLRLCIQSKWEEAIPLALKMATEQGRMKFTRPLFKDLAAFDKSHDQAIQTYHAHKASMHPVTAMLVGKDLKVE
Procedure: Izumi et al. had reported a method of measuring LTA4 hydrolase activity by measuring an amount of LTB4 produced by an enzymatic reaction using LTA4 as a substrate (Biochem. Biophys. Res. Commun., 135, 139-145 (1986)). Effects of the present compounds on LTA4 hydrolase were examined according to the method described in the literature.
An enzyme preparation used in this pharmacological test was prepared by extracting roughly from guinea pig lung by the following method, according to the method of Izumi et al. (Biochem. Biophys. Res. Commun., 135, 139-145 (1986)) and the method of Evans et al. (Biochem. Biophys. Acta, 840, 43-50 (1985)).
Lungs were excised from Hartley guinea pigs (body weight: 330 g). The lungs were homogenized in phosphoric acid buffer (50 mM, pH 7.4, containing 1 mM ethylenediaminetetraacetic acid (EDTA) and 1 mM dithiothreitol (DTT)) having weight three times that of the lungs under ice-cooling. The homogenate was centrifuged at low speed (800×g) for 20 minutes, centrifuged at high speed (10,000×g) for 20 minutes and ultraccntrifugcd (100,000×g) for 60 minutes to give a supernatant. The supernatant was brought to 40% saturation by adding a saturated aqueous ammonium sulfate solution (pH 7.0-7.2, containing 1 mM DTT) dropwise under ice-cooling and centrifuged at high speed (10,000×g) for 20 minutes. The resulting supernatant was brought to 70% saturation by adding a saturated aqueous ammonium sulfate solution (pH 7.0-7.2, containing 1 mM DTT) dropwise and centrifuged at high speed (10,000×g) for 20 minutes. The obtained pellet was dissolved in 2 ml of Tris-acetic acid buffer (20 mM, pH 7.8, containing 1 mM DTT) and dialyzed in 2 liters of the solution to give the enzyme preparation.
LTA4 used, which is the substrate, was prepared by hydrolyzing LTA4 methyl ester and dissolved in ethanol.
In order to examine effects of the present compounds on the enzyme preparation, reactions were performed under the following condition using mixed solutions consisting of the composition shown in Table 1. […]
HEPES buffer 50 mM, pH 7.8
Enzyme preparation 0.4-0.6 mg protein
The above-mentioned solution (50 μl) was incubated at 37° C. for one minute. To the reaction mixture was added 100 μl of a mixed liquid of acetonitrile-ethanol-acetic acid (150:50:3, volume ratio) under ice-cooling. The mixture was allowed to stand at -20° C. for 30 minutes and centrifuged at high speed (10,000×g) for five minutes to give a supernatant. An amount of LTB4 produced in the supernatant was measured by high-speed liquid chromatography.
The degree of the inhibitory effect of each test compound on LTA4 hydrolase is expressed by the inhibition rate calculated by the following equation. [formula] Results

Row | SMILES | IC50
2 | C[C@@H](CS)C(=O)N[C@@H](CSCc1ccc(N(C)C)cc1)C(=O)O [Compound No. 3-21, (2R)-3-[4-(N,N-Dimethylamino)benzylthio]-2-[(2R)-3-mercapto-2-methylpropionylamino]propionic acid] | 1.5 µM
3 | CCC(CS)C(=O)N[C@@H](CSCc1ccc(N(C)C)cc1)C(=O)O (mixture of isomers) [Compound No. 3-22, (2R)-3-[4-(N,N-Dimethylamino)benzylthio]-2-[(2RS)-2-ethyl-3-mercaptopropionylamino]propionic acid] | 0.4 µM
4 | CCN(CC)c1ccc(CSC[C@H](NC(=O)[C@H](C)CS)C(=O)O)cc1 [Compound No. 3-9, (2R)-3-[4-(N,N-Diethylamino)benzylthio]-2-[(2S)-3-mercapto-2-methylpropionyl]aminopropionic acid] | 0.9 µM

The remaining lines, values ahead:

Row | IC50 | SMILES
5 | 5.6 µM | C[C@H](S)C(=O)N[C@@H](CSCc1ccc(N(C)C)cc1)C(=O)O [Compound No. 3-19, (2R)-3-[4-(N,N-Dimethylamino)benzylthio]-2-[(2S)-2-mercaptopropionylamino]propionic acid]
6 | 3.8 µM | CN(C)c1ccc(CSC[C@H](NC(=O)C(CS)CCc2ccccc2)C(=O)O)cc1 (single isomer, unassigned) [Compound No. 3-27, (2R)-3-[4-(N,N-Dimethylamino)benzylthio]-2-[(2R or 2S)-2-phenetyl-3-mercaptopropionylamino]propionic acid]
7 | 1.1 µM | CC(C)C(CS)C(=O)N[C@@H](CSCc1ccc(N(C)C)cc1)C(=O)O (mixture of isomers) [Compound No. 3-24, (2R)-3-[4-(N,N-Dimethylamino)benzylthio]-2-[(2RS)-2-isopropyl-3-mercaptopropionylamino]propionic acid]
8 | 0.59 µM | CCOC(=O)[C@H](CSCc1ccc(N(C)C)cc1)NC(=O)[C@H](C)CS [Compound No. 8-1, Ethyl (2R)-3-[4-(N,N-dimethylamino)benzylthio]-2-[(2S)-3-mercapto-2-methylpropionylamino]propionate]
9 | 0.5 µM | CN(C)c1ccc(CSC[C@H](NC(=O)C(CS)CCc2ccccc2)C(=O)O)cc1 (single isomer, unassigned) [Compound No. 3-26, (2R)-3-[4-(N,N-Dimethylamino)benzylthio]-2-[(2S or 2R)-2-phenetyl-3-mercaptopropionylamino]propionic acid]
10 | 0.29 µM | CCCC(CS)C(=O)N[C@@H](CSCc1ccc(N(C)C)cc1)C(=O)O (mixture of isomers) [Compound No. 3-23, (2R)-3-[4-(N,N-Dimethylamino)benzylthio]-2-[(2RS)-3-mercapto-2-propylpropionylamino]propionic acid]
11 | 0.24 µM | C[C@H](CS)C(=O)N[C@@H](CSCc1ccc(N(C)C)cc1)C(=O)O [Compound No. 3-1, (2R)-3-[4-(N,N-Dimethylamino)benzylthio]-2-[(2S)-3-mercapto-2-methylpropionylamino]propionic acid]

system: LTA4 hydrolase; assay: not given; details: JP-A 2-134375; J. Med. Chem., 37, 3197-3199 (1994); cited from earlier work

Row | SMILES | LTA4 hydrolase inhibitory activity (reported, in words)
12 | O=C(O)C1(c2ccc3c(c2)OC[C@H](Cc2ccc(-c4ccccc4)cc2)[C@H]3O)CCCC1 [(+)-1-(3S, 4R)-[3-(4-phenylbenzyl)-4-hydroxychroman-7-yl]cyclopentanecarboxylic acid] | LTA4 hydrolase inhibitory activity
13 | O=C(O)c1cccc(C2CO2)c1 (stereo not shown) [3-Oxiranyl benzoic acid] | LTA4 hydrolase inhibitory activity
